# Test results from PubChem BioAssay AID1645868 (Buhrlage Lab, Dana-Farber Cancer Institute and Novartis …, 2021).
# Active and inactive are the calls of the source.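 How the source made its calls: active means maximal percent inhibition of the deubiquitinase OTUD3 of at least 30% across the tested doses; inactive means the rest.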
# Target: OTU domain-containing protein 3 (Homo sapiens) (UniProt Q5T2D3)
# Assay: Validation of screening hits, potency titration, in vitro enzymatic, OTU domain-containing protein 3 DUB inhibitors (AID 1645868)
# Conditions: purified OTUD3, ubiquitin-rhodamine cleavage fluorescence, 2 h
# Chain of OTU domain-containing protein 3 (Homo sapiens) (Q5T2D3 whole entry, looked up, the tested form may be a part): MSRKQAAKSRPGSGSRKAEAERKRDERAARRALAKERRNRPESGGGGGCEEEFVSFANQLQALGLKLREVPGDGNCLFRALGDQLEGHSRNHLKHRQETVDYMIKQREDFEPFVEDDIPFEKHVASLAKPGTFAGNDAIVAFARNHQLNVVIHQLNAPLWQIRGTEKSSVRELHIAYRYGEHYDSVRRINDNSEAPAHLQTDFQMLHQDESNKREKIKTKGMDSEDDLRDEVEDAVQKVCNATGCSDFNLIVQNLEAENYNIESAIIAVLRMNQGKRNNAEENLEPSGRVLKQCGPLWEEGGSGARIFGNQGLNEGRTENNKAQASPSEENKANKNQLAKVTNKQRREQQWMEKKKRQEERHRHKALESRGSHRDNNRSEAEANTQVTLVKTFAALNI
row,Structure (SMILES),IC50
1,Cc1ccc(-c2nnc(-n3ncc(C#N)c3N)c3ccccc23)cc1C,> 50 µM (inactive)
2,CN(C)S(=O)(=O)c1ccc(C(=O)Nc2c(C#N)oc3ccccc23)cc1,> 50 µM (inactive)
3,Cc1cc(N2CCC(NC(=O)NCc3ccc(F)cc3)C2=O)ccc1F (centres undefined),30.4 µM
4,CCOC(=O)C1CCN(C(=O)c2ccc3c(c2)NC(=O)C2CCCN32)CC1 (centres undefined),> 50 µM (inactive)
5,O=C1NCc2c1c1c3ccccc3[nH]c1c1[nH]c3ccccc3c21,> 50 µM (inactive)
6,Cc1ccc(C)c(S(=O)(=O)N2CCC3(CC2)NC(=O)c2ccccc2N3)c1,> 50 µM (inactive)
7,CCCCNC(=O)C1Sc2nnc(-c3ccccc3)n2NC1c1ccccc1 (centres undefined),17.9 µM
8,CCCCc1nc2sc3c(NCCN4CCOCC4)ncnc3c2c2c1CCC2,> 50 µM (inactive)
9,O=C(NCc1ccccc1Cl)c1ccc2cn[nH]c2c1,> 50 µM (inactive)
10,Cc1c(OCC(=O)NCC(=O)N2CCC3(O)CCCCC3C2)ccc2c3c(c(=O)oc12)CCCC3 (centres undefined),> 50 µM (inactive)
11,Cc1cnc2nc3c(cc2c1)CN(S(=O)(=O)c1cc(F)ccc1C)CC3,> 50 µM (inactive)
12,Cc1sc2ncnc(OCc3ccc(F)cc3Cl)c2c1C,> 50 µM (inactive)
13,O=C(Nc1cccn(Cc2c(Cl)cccc2Cl)c1=O)c1ccccc1[N+](=O)[O-],> 50 µM (inactive)
14,O=C(Nc1ccccc1)c1cn2c3c(cccc3c1=O)CC2,> 50 µM (inactive)
15,O=c1c(-c2nc(C3CC3)no2)cccn1Cc1c(F)cccc1Cl,> 50 µM (inactive)
16,Cc1oc(C2CC2)cc1C(=O)N1CCC2(CC1)CC1(CO2)Nc2ccccc2-n2cccc21 (centres undefined),> 50 µM (inactive)
17,CN1C(=O)COc2cc(-c3noc(C(=O)NC4CCCCCC4)n3)ccc21,> 50 µM (inactive)
18,CC(=O)c1cccc(NC(=O)c2ccc3[nH]c4c(c3c2)CC(C)CC4)c1 (centres undefined),> 50 µM (inactive)
19,CC(C)(C)C(=O)C1C2C(=O)N(Cc3ccccc3)C(=O)C2C2c3ccccc3C=CN12 (centres undefined),> 50 µM (inactive)
20,COc1ccc(NC(=O)COc2ccc3ccc(=O)oc3c2)cc1,> 50 µM (inactive)
21,Cc1cccc(NC(=O)Cn2c(=O)n(Cc3ccc(F)cc3)c(=O)c3sccc32)c1,17.5 µM
22,Cc1nnc(-c2nnc(NCc3ccc(Cl)cc3)c3ccccc23)o1,> 50 µM (inactive)
23,COc1ccc(NC(=O)CC(=O)c2ccc([N+](=O)[O-])cc2)cc1S(=O)(=O)Nc1ccc(Cl)cc1,35.5 µM
24,Cc1ccc(C2c3cccn3CCN2C(=O)Nc2ccccc2)cc1 (centres undefined),> 50 µM (inactive)

row,Structure (SMILES),IC50
1,COc1ccc(C(C)NC(=O)c2cnc(-c3ccccc3)nc2-c2ccncc2)cc1 (centres undefined),> 50 µM (inactive)
2,CC(C)(C)C(=O)NC(c1ccccc1)c1nnc(N2CCOCC2)o1 (centres undefined),> 50 µM (inactive)
3,O=c1ccc(-c2noc(Cc3cccc(Cl)c3)n2)c[nH]1,> 50 µM (inactive)
4,Cc1cc(C(=O)CSc2nc3ccccc3[nH]2)c(C)n1Cc1ccco1,> 50 µM (inactive)
5,Cc1nc2ccc(NC(=O)COc3ccccc3[N+](=O)[O-])cc2s1,19.9 µM
6,CC[C@@]1(O)C[C@H](OC2CC(N(C)C)C(OC3CC(O)C(OC4CCC(=O)C(C)O4)C(C)O3)C(C)O2)c2c(cc3c(c2O)C(=O)c2c(O)ccc(O)c2C3=O)[C@H]1C(=O)OC (some centres undefined),> 5 µM (inactive)
7,CCc1cccc2c(C(=O)COc3ccc(C#N)cc3)c[nH]c12,47.3 µM
8,COc1ccc(OCCn2c(C3CC(=O)N(c4cccc(C)c4)C3)nc3ccccc32)cc1 (centres undefined),2.42 µM
9,Cc1cc(C)cc(N(CCC(=O)Nc2ccc(N3CCOCC3)cc2)S(=O)(=O)c2ccc(Cl)cc2)c1,19.7 µM
10,COc1ccc(COC(=O)C2=C(C)NC(=O)CC2c2cccc([N+](=O)[O-])c2)cc1 (centres undefined),> 50 µM (inactive)
11,Cc1cc(=O)n2c3c(c4c(cc13)c(CO)cc(=O)n4C)OC2,> 50 µM (inactive)
12,O=C(CNc1ccc(F)c(Cl)c1)Nc1ccc2c(c1)OCCO2,> 50 µM (inactive)
13,Cc1sc(NC(=O)CN2CCc3ccccc3C2)nc1-c1ccc2c(c1)CCN2C(=O)C1CCCCC1,> 50 µM (inactive)
14,COc1ccc(-c2cc(-c3nnc4n3CCCCC4)n(-c3ccccc3)n2)cc1,> 50 µM (inactive)
15,CC(=O)c1ccccc1NC(=O)COc1ccc(-c2ccc(C#N)cc2)cc1,> 50 µM (inactive)
16,CC1CCc2c(sc3ncnc(OCc4cccc([N+](=O)[O-])c4)c23)C1 (centres undefined),> 50 µM (inactive)
17,CC1(C)CC2CC(C)(CN2Cc2c(O)ccc3ccccc23)C1 (centres undefined),> 50 µM (inactive)
18,COc1ccc(S(=O)(=O)Nc2ccc(Nc3ccc(-n4cccn4)nn3)cc2)cc1,> 50 µM (inactive)
19,CC(=O)N1CCc2cc(S(=O)(=O)NCc3ccc(C)cc3)ccc21,> 50 µM (inactive)
20,O=C(Cc1nnc2c(-c3nc(C4CC4)no3)cccn12)Nc1ccccc1,22.8 µM
21,CCCc1nc2sc3c(NCCc4ccc(OC)c(OC)c4)ncnc3c2c2c1CCC2,> 50 µM (inactive)
22,O=C1c2c(O)c(Cl)cc3c2[C@@]2(Oc4cc(Cl)c(O)c5c4[C@]3(O2)[C@@H]2O[C@@H]2C5=O)[C@@H]2O[C@H]12,0.703 µM
23,COc1cccc(NC(=O)C2Cn3ccnc3C3(CCN(C(C)=O)CC3)O2)c1 (centres undefined),> 50 µM (inactive)
24,C[C@]12C(=O)N(c3ccc(C(=O)NCc4ccc(F)cc4)cc3)C(=O)N1CCc1c2[nH]c2ccccc12,> 50 µM (inactive)

row,Structure (SMILES),IC50
1,Cc1c(-c2nnc(-c3ccccc3Cl)o2)nnn1-c1ccccc1,> 50 µM (inactive)
2,CCOc1ccc(NC(=O)c2cc(-c3ccccc3)c(N3CCOCC3)s2)cc1,27.2 µM
3,O=C(Nc1ccc2ccccc2n1)c1ccc(Cl)cc1,28.8 µM
4,COc1ccc(CCNC(=O)CCCn2c(=O)c3ccccc3n(CC(=O)OCc3ccccc3)c2=O)cc1OC,21.8 µM
5,COc1ccccc1C(=O)NCC(c1ccc2c(c1)CCCN2C)N1CCCC1 (centres undefined),> 50 µM (inactive)
6,CCC/C=C\C#CC/C=C\CCCCCCCC(=O)O,1.37 µM
7,O=C(CSc1nnc(-c2ccncc2)n1Cc1ccccc1)c1ccc2[nH]c(O)cc2c1,> 50 µM (inactive)
8,Cc1ccccc1OCCSc1nc2ccccc2n1CC(=O)NC1CC1,25.4 µM
9,Cc1ccc2[nH]c(=O)c(-c3nc4ccc(C)cn4c3NCc3ccc(F)cc3)cc2c1,3.37 µM
10,COC(=O)c1ccc(Cn2cnc3ccc(F)cc3c2=O)o1,> 50 µM (inactive)
11,O=C(Nc1ccc(Oc2cccc3cccnc23)cc1)c1cccs1,> 50 µM (inactive)
12,Cc1ccc(NC(=O)c2sc3ncn(CC(=O)N4CCN(c5ccccn5)CC4)c(=O)c3c2C)c(Br)c1,37.9 µM
13,N#Cc1c(-c2ccccc2)ccn(Cc2cccc(C(F)(F)F)c2)c1=O,> 50 µM (inactive)
14,CC1=CC(=O)C(C2=C(O)C(=O)C(C)=CC2=O)=C(O)C1=O,25.6 µM
15,O=C(CCc1c[nH]c2ccccc12)Nc1ccc(N2CCOCC2)cc1,30.9 µM
16,O=C1N(Cc2ccc(F)cc2)CCN1c1ccc(C(F)(F)F)cn1,> 50 µM (inactive)
17,CC1CCc2c(sc3ncnc(NC4CCN(CC(N)=O)CC4)c23)C1 (centres undefined),> 50 µM (inactive)
18,O=C(c1ccc(N2CCc3ccccc32)nn1)N1CCc2ccccc21,> 50 µM (inactive)
19,COc1ccc(NCc2cc(=O)n3[nH]c(NCc4ccc(C(C)C)cc4)nc3n2)cc1,> 50 µM (inactive)
20,O=C(Nc1cc(F)c2nc(N3CCOCC3)ccc2c1)c1ccc(Br)o1,> 50 µM (inactive)
21,Cn1c(=O)c2c(nc3n(-c4ccccc4F)c(-c4ccccc4)cn23)n(C)c1=O,> 50 µM (inactive)
22,COc1ccccc1NC(=O)c1nn(-c2cccc(F)c2)c(OC)cc1=O,> 50 µM (inactive)
23,CCOc1ccc(C(=O)Cn2c(=O)n(CC3CCCO3)c(=O)c3cc(OC)c(OC)cc32)cc1Cl (centres undefined),45.1 µM
24,COc1ccccc1-c1nc(-c2cn(-c3ccc(C)cc3)nn2)no1,> 50 µM (inactive)

row,Structure (SMILES),IC50
1,CCN(CC)c1nc(F)c2c(c1F)S(=O)(=O)CCN2Cc1cccnc1,> 50 µM (inactive)
2,Nc1c(C(=O)NCCc2ccccc2)nnn1-c1ccc(F)cc1,> 50 µM (inactive)
3,Cc1cc(C(=O)NC2(O)C(=O)c3ccccc3C2=O)n(C)n1,47.2 µM
4,CCOC(=O)C1C(c2ccc(Br)cc2)C2(C(=O)c3ccccc3C2=O)C2C=Cc3ccccc3N12 (centres undefined),> 50 µM (inactive)
5,Cc1cccc(NC(=O)CSc2nnc(-c3n[nH]c4c3CCC4)n2N)c1,31.6 µM
6,COCCCNC(=O)c1ccc(Cn2c(=O)c3ccccc3n(CC(=O)Nc3ccc(OC)cc3)c2=O)cc1,28.1 µM
7,Cc1ccc(Cc2nc(-c3ccc(=O)[nH]c3)no2)cc1,> 50 µM (inactive)
8,COc1ccc(C(=O)Nc2ccccc2C(=O)NCc2ccccc2)cc1,> 50 µM (inactive)
9,O=C(Cn1cc(S(=O)(=O)Cc2ccc(Cl)cc2)c2ccccc21)N1CCCCC1,> 50 µM (inactive)
10,O=C(Nc1ccccc1Br)c1ccn(COc2ccccc2F)n1,46.7 µM
11,COC(=O)c1ccc2c(=O)n(CCCCCC(=O)NCCc3ccc(S(N)(=O)=O)cc3)c(=O)[nH]c2c1,12.5 µM
12,N#Cc1ccc(Cc2ncc(C(F)(F)F)cc2Cl)s1,> 50 µM (inactive)
13,O=C(Nc1ccc2c(c1)OCCO2)C1CCN(C(=O)c2ccccc2)CC1,> 50 µM (inactive)
14,Cc1ccc(-c2ncc(C(=O)NCc3cccc(C)c3)c(-c3ccncc3)n2)cc1,> 50 µM (inactive)
15,O=S(=O)(c1cccc2cccnc12)N(CCc1ccccc1)C1CCN(CCc2ccc(Cl)cc2)CC1,> 50 µM (inactive)
16,CCc1ccc2[nH]c(=O)c(CN(CCc3ccc(OC)c(OC)c3)C(=O)Nc3ccccc3)cc2c1,> 50 µM (inactive)
17,c1ccc2c(Cc3nc(-c4ccncc4)no3)cccc2c1,> 50 µM (inactive)
18,COc1ccc(CNc2nn3c(-c4cncc(OC)c4)cnc3s2)cc1,> 50 µM (inactive)
19,COc1cc2cc3c(c(O)c2c(O)c1-c1c(OC)cc2cc4c(c(O)c2c1O)C(=O)OC1CC(C)OC41)C(=O)OC1CC(C)OC31 (centres undefined),> 50 µM (inactive)
20,Cc1nc(C(=O)N[C@@H](C)C(=O)NCc2ccc3c(c2)OCO3)cc2c1[nH]c1ccccc12,37.8 µM
21,CCc1ccc(-c2nc(SCC(=O)Nc3ccc4[nH]c(=O)[nH]c4c3)n[nH]2)cc1,40.7 µM
22,COc1ccc(-c2cc(-c3ccc(O)cc3)nc(N)c2C#N)cc1OC,> 50 µM (inactive)
